# Source: patent EP4603105A1, “PHARMACEUTICAL COMPOSITION CONTAINING CYCLIC COMPOUND HAVING SELECTIVE KRAS INHIBITORY EFFECT AGAINST HRAS AND NRAS” (CHUGAI SEIYAKU KABUSHIKI KAISHA, priority 2022, dated 2024)
# *1 amine or outer side, *2 acyl side, *3 side chain or, on linkers, in order; H or OH if unused. Where a SMILES comes first, the peptide text is derived from it. Bridges are numbered along the chain shown (N, C = ends). [ ]: non-standard residue; d: D form. The star is where a group is joined. hPhe(3-Cl-4-CF3) = N[C@@H](CCc1ccc(C(F)(F)F)c(Cl)c1)C(=O)O; NPrPhe(4-CF3) = CCCN[C@@H](Cc1ccc(C(F)(F)F)cc1)C(=O)O; X37 = Cc1ccc(C[C@@H](C(=O)[*:2])N(CCC(C)C)[*:1])cc1; NEtPhe(4-F) = CCN[C@@H](Cc1ccc(F)cc1)C(=O)O; NMeGly(cPent) = CN[C@H](C(=O)O)C1CCCC1; Pro(4,4-F2) = O=C(O)[C@@H]1CC(F)(F)CN1; NMeD = CN[C@@H](CC(=O)O)C(=O)O; NMeL = CN[C@@H](CC(C)C)C(=O)O; Morpholide = C1CN(*)CCO1; NMeA = CN[C@@H](C)C(=O)O; Ac5c = NC1(C(=O)O)CCCC1; Aze = O=C(O)[C@@H]1CCN1; Ac4c = NC1(C(=O)O)CCC1; Sar = CNCC(=O)O
# What was measured:
# [1] = target: GDP-bound NRAS wild-type protein (Homo sapiens, UniProt P01111); test: Binding to NRAS by surface plasmon resonance (SPR), KD and KD ratio to KRAS
# How it was run: (§1)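 Single-cycle kinetics on GDP-loaded biotin-Avi RAS captured to ~100–300 RU; 75 s ascending injections, 100 µL/min, 30°C. HBS pH 7.4 + 10 mM MgCl2/10 µM GDP/4% DMSO. 1:1 fit, KD.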
# HRAS wild-type protein = HRAS wild-type protein (Homo sapiens, UniProt P01112); test: Binding to HRAS by surface plasmon resonance (SPR), KD and KD ratio to KRAS
# How it was run: as §1
# [2] = tested on: human lung cancer strain NCI-H441; assay type: cell-based
# How it was run: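 Proliferation was scored by […] measured after the reagent was added to cultures kept at 37°C in 5% carbon dioxide.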
# [3] = ratio of KD for GDP-bound NRAS wild-type protein to KD for KRAS
# [4] = ratio of KD for HRAS wild-type protein to KD for KRAS
# [5] = ratio of the KD value with respect to GDP-bound NRAS wild-type protein to the KD value with respect to KRAS
# [6] = ratio of the KD value with respect to HRAS wild-type protein to the KD value with respect to KRAS
# HRAS wild-type protein, sequence (P01112 whole entry): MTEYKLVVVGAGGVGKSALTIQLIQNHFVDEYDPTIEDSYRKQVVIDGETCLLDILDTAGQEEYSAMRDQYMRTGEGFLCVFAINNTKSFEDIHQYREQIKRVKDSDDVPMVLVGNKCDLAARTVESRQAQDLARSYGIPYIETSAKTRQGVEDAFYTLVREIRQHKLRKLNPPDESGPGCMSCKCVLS
# GDP-bound NRAS wild-type protein, sequence (P01111 whole entry): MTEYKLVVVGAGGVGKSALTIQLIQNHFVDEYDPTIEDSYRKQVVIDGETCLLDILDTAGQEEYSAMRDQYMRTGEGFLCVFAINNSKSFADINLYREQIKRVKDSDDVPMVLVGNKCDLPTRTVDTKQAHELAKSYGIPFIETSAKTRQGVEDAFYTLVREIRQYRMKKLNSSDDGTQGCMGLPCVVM
Compound,NRAS /KRAS ([1]; ratio of KD value for GDP-bound NRAS wild-type protein to KD value for KRAS (SPR)),HRAS /KRAS (HRAS wild-type protein; ratio of KD value for HRAS wild-type protein to KD value for KRAS (SPR)),IC50 [2] [nM],"NRAS /KRAS [1, 3]",HRAS /KRAS (HRAS wild-type protein; [4]),"NRAS /KRAS [1, 5]",HRAS /KRAS (HRAS wild-type protein; [6])
CC[C@H](C)[C@@H]1NC(=O)[C@H](CC2CC2)N(C)C(=O)C[C@@H](C(=O)N(C)CC)N(C)C(=O)[C@H](C2CCCC2)N(C)C(=O)C2(CCC2)NC(=O)[C@@H]2CC(F)(F)CN2C(=O)[C@H](CCc2cc(F)c(C(F)(F)F)c(F)c2)NC(=O)CN(C)C(=O)[C@H](Cc2ccc(C(F)(F)F)cc2)N2CC/C=C\C[C@@H](C2=O)N(C)C(=O)CN(C)C1=O [PP1538],A (a compound having 10 or more and less than 20 is denoted as A),B (a compound having 3 or more and less than 10 is denoted as B),7.5,,,,
CCO[C@@H]1C[C@H]2C(=O)NC3(CCC3)C(=O)N(C)[C@@H](C3CCCC3)C(=O)N(C)[C@H](C(=O)N3CCOCC3)CC(=O)N(C)[C@@H](CC)C(=O)N[C@@H]([C@@H](C)CC)C(=O)N3CC[C@H]3C(=O)N(C)[C@H]3C[C@@H](C)CCN(C3=O)[C@@H](Cc3ccc(C(F)(F)F)cc3)C(=O)N(C)CC(=O)N[C@@H](CCc3cc(F)c(C(F)(F)F)c(F)c3)C(=O)N2C1 [PP1028],,,17.3,B (a compound having 3 or more and less than 10 is denoted as B),B (a compound having 3 or more and less than 10 is denoted as B),,
CC[C@H](C)[C@@H]1NC(=O)[C@H](CC(C)C)N(C)C(=O)CSC[C@H](C(=O)N(C)C)N(C)C(=O)[C@H](C2CCCC2)N(C)C(=O)C2(CCCC2)NC(=O)[C@@H]2CCCN2C(=O)[C@@H](CCc2cc(F)c(C(F)(F)F)c(F)c2)NC(=O)CN(C)C(=O)[C@H](Cc2ccc(C(F)(F)F)cc2)N2CC=CC[C@@H](C2=O)N(C)C(=O)CN(C)C1=O [PP3108],,,9250,C (A compound having a KD ratio of 0.1 or more and less than 3 is denoted as C),B (a compound having 3 or more and less than 10 is denoted as B),,
CC[C@H](C)[C@@H]1NC(=O)[C@H](CC(C)C)N(C)C(=O)C[C@@H](C(=O)N2CCOCC2)N(C)C(=O)[C@H](C2CCCC2)N(C)C(=O)C2(CCCC2)NC(=O)[C@@H]2CCCN2C(=O)[C@H](CCc2ccc(C(F)(F)F)c(Cl)c2)NC(=O)CN(C)C(=O)[C@H](Cc2ccc(F)cc2)N(CC)C(=O)CN(C)C(=O)CN(C)C1=O [PP0213] ([NMeL]I[Sar][Sar][NEtPhe(4-F)][Sar][hPhe(3-Cl-4-CF3)]P[Ac5c][NMeGly(cPent)][NMeD]-Morpholide; lactam N-11),,,10.3,C (A compound having a KD ratio of 0.1 or more and less than 3 is denoted as C),C (A compound having a KD ratio of 0.1 or more and less than 3 is denoted as C),,
"CCCN1C(=O)[C@@H]2CCN2C(=O)[C@H](C)N(C)C(=O)[C@H]([C@@H](C)CC)NC(=O)[C@H](CC(C)C)N(C)C(=O)C[C@@H](C(=O)N(C)C)N(C)C(=O)[C@H](C2CCCC2)N(C)C(=O)C2(CCC2)NC(=O)[C@@H]2CC(F)(F)CN2C(=O)[C@H](CCc2ccc(C(F)(F)F)c(Cl)c2)NC(=O)CN(C)C(=O)[C@@H]1Cc1ccc(C(F)(F)F)cc1 [PP0437] ([NMeL]I[NMeA][Aze][NPrPhe(4-CF3)][Sar][hPhe(3-Cl-4-CF3)][Pro(4,4-F2)][Ac4c][NMeGly(cPent)][NMeD]-NMe2; lactam N-11)",,,1.2,,,C (A compound having a KD ratio of 0.1 or more and less than 3 is denoted as C),B (a compound having 3 or more and less than 10 is denoted as B)
CC[C@H](C)[C@@H]1NC(=O)[C@H](C)N(C)C(=O)C[C@@H](C(=O)N(C)C)N(C)C(=O)[C@H](C2CCCC2)N(C)C(=O)C2(CCCC2)NC(=O)[C@@H]2CC(F)(F)CN2C(=O)[C@H](CCc2cc(F)c(C(F)(F)F)c(F)c2)NC(=O)CN(C)C(=O)[C@H](Cc2ccc(C(F)(F)F)cc2)N2CCCC[C@@H](C2=O)N(C)C(=O)CN(C)C1=O [PP0583],,,10.3,,,C (A compound having a KD ratio of 0.1 or more and less than 3 is denoted as C),C (A compound having a KD ratio of 0.1 or more and less than 3 is denoted as C)
CC[C@H](C)[C@@H]1NC(=O)[C@H](CC(C)C)N(C)C(=O)C[C@@H](C(=O)N2CCOCC2)N(C)C(=O)[C@H](C2CCCC2)N(C)C(=O)C2(CCCC2)NC(=O)[C@@H]2CCCN2C(=O)[C@H](CCc2ccc(C(F)(F)F)c(Cl)c2)NC(=O)CN(C)C(=O)[C@H](Cc2ccc(C)cc2)N(CCC(C)C)C(=O)[C@@H]2CCN2C(=O)[C@H](C)N(C)C1=O [PP0086] ([NMeL]I[NMeA][Aze][X37][Sar][hPhe(3-Cl-4-CF3)]P[Ac5c][NMeGly(cPent)][NMeD]-Morpholide; lactam N-11),,,6.4,C (A compound having a KD ratio of 0.1 or more and less than 3 is denoted as C),B (a compound having 3 or more and less than 10 is denoted as B),,
